Assay results reported in US20090208550A1, “Methods and compositions for treating hepatic diseases” (priority 2007, published 2009).

Assays:
[1] = system: AML-12 hepatocytic cells; assay: Fat accumulation in AML-12 cells: Oil Red O staining and cellular triglyceride (Example 7); settings: twenty-four hours; for blockade of the effect of NECA on hepatocyte triglyceride accumulation / intracellular triglyceride levels / lipid accumulation by Oil Red O staining: NECA 10 mM; for blockade of the effect of NECA on hepatocyte triglyceride accumulation: MRS1706 1 mM
Description: Hepatocyte cell culture, triglyceride measurement and oil red O staining of hepatocytes. […] AML-12 Cells were grown in 1:1 mixture of DMEM-Ham's F-12 medium supplemented with 0.005 mg/ml insulin, 0.005 mg/ml transferrin, 5 ng/ml selenium, 40 ng/ml dexamethasone, 10% fetal bovine serum and antibiotics. Upon reaching 70-80% confluence the cells were treated for 6 hours in serum-free DMEM-Ham's F-12 medium and then treated with different adenosine receptor agonists, antagonists or vehicle (DSMO, 1.28×10^−5M), respectively. The method of the triglyceride measurement of hepatocytes is the same as the liver tissue. The cells were fixed with 10% neutral formalin, and Oil Red O staining as described above.

[2] = system: AML-12 mouse hepatocyte cell line; assay: Oil Red O staining, lipid content of AML-12 hepatocytes (Example 1); format: cell-based; settings: AML-12 cells, 24 hours
[3] = system: ATP citrate lyase (ACL) mRNA; assay: Real-time PCR of ACL mRNA in cultured AML-12 hepatocytes; format: cell-based, mouse; settings: AML-12 cells, 24 hours; for mRNA for ACL: 10^-6M, control 100.0%, n=3
Description: (§1) Total RNA was isolated from cultured hepatocytes using Trizol reagent (Invitrogen, USA) and RNA extracted according to the manufacturer's instructions, then dissolved in sterile DEPC water and stored at −80° C. 1 μg RNA of sample RNA was transcribed to cDNA with the GeneAmp RNA Core Kit (Applied Biosystems, Branchburg, N.J.). Primer sequences ATP citrate lyase (ACL): forward 5′-GAAGCTGACCTTGCTGAACC-3′, reverse 5′-CTGCCTCCAATGATGAGGAT-3′; fatty acid synthase (FAS): forward 5′-TGGGTTCTAGCCAGCAGAGT-3′, reverse: 5′-ACCACCAGAGACCGTTATGC-3′. PCR was performed with the SYBR Green PCR Kit (Applied Biosystems, Foster City, Calif.) following the manufacturer's instructions and carried out on the Mx3005P™ Q-PCR system (Stratagene, La Jolla, Calif.) in 50 μl volume. The number of copies for each amplicon was calculated by Mx3005P software, normalized to GAPDH and expressed as a dimensionless ratio.

[4] = system: fatty acid synthase (FAS) mRNA; assay: Real-time PCR of FAS mRNA in cultured AML-12 hepatocytes; format: cell-based, mouse; settings: AML-12 cells, 24 hours; for mRNA for FAS: 10^-6M, control 100.0%, n=3
Description: as §1

[5] = system: ethanol-induced fatty liver in C57Bl/6 mice; assay: Ethanol-induced fatty liver in mice treated with adenosine receptor antagonists (Example 5); format: in vivo, mouse; settings: ethanol diet 6 weeks, 50 mg/Kg/Day, versus ethanol-treated wild type mice
Excerpt: Mouse models of fatty livers and treatment. Mice were fed an ethanol-containing liquid Lieber-De-Carli diet (ethanol provides 350 Kcal/L) or a calorie equivalent diet supplemented with maltose (BioServ Inc., Frenchtown, N.J.) for 6 weeks. […] In first week, animals were gradually introduced to the ethanol diet following the manufacturer's instructions. Mice were sacrificed by CO2 narcosis at the end of the experiment and their livers were collected. Two wild type mice and one CD73 knockout mouse on an ethanol-containing diet died, and none of the antagonist-treated or other knockout mice died during the course of these experiments.
Hematoxylin-Eosin (H&E) and Oil Red O staining of liver sections. Livers were fixed with 10% neutral formalin, embedded in paraffin and stained with H&E for histological examination. Liver steatosis was graded as previously described (Hong et al., Hepatology (2004) 40:933-941) based on the semiquantitative estimation of the percentage of lipid-laden hepatocytes in the liver according to the following criteria: grade 0: no hepatocytes involved; grade 1: 1% to 25% of hepatocytes involved; grade 2: 26% to 50% of hepatocytes involved; grade 3: 51% to 75% of hepatocytes involved; and grade 4: 76% to 100% of hepatocytes involved. At least five random different high power fields (hpf) of each cross-section (400× magnification) were graded in a blinded way. […]
Measurements of serum AST and triglyceride. […] AST and triglyceride were measured by standard techniques in the Clinical Laboratory of Bellevue Hospital. […]
Materials and Methods. […] The liver and body of the mice were weighed on the day of sacrifice and the liver/total body weight ratio calculated. The serum AST and triglyceride and hepatic tissue triglyceride levels were also measured, as described in Example 3, supra. […]

[6] = system: ACL, FAS, ACCα, CPTI, PPARα, PPARγ and SREBP1 mRNA in mouse liver tissue; assay: Real-time PCR of hepatic mRNA expression in ethanol-fed mice (Example 6); format: in vivo; settings: chronic ethanol ingestion, 50 mg/Kg/Day, n=5
Description: Real-time PCR quantitation of mRNA. Total RNA was isolated from liver tissue using Trizol reagent (Invitrogen, USA) and RNA extracted according to the manufacturer's instructions, then dissolved in sterile DEPC water and stored at −80° C. 1 μg of sample RNA was transcribed to cDNA with the GeneAmp RNA Core Kit (Applied Biosystems, Branchburg, N.J.). […] The number of copies for each amplicon was calculated by Mx3005P software, normalized to GAPDH and expressed as a dimensionless ratio.
Materials and methods. mRNA expression of genes in hepatic tissue was assessed by Real-time PCR and normalized to GAPDH. […] The number of copies for each amplicon was calculated by Mx3005P software, normalized to GAPDH and expressed as a dimensionless ratio.

Structure (SMILES) | blockade of the effect of NECA on hepatocyte triglyceride accumulation ([1]; DPCPX 1mM) | mRNA for ACL [3] | mRNA for FAS [4] | intracellular triglyceride levels ([1]; CPA 1 mM) | lipid accumulation by Oil Red O staining ([1]; CPA 1 mM) | serum AST levels [5] | other results
CCCn1c(=O)c2[nH]c(-c3ccc(OCC(=O)Nc4ccc(C(C)=O)cc4)cc3)nc2n(CCC)c1=O [MRS1706, N-(4-aceptylphenyl)-2-[4-(2,3,6,7-tetrahydro-2,6-dioxo-1,3-dipropyl-1H-purine-8-yl)phenoxy]acetamide] | almost completely abrogated | – | – | – | – | – | –
OC[C@H]1O[C@@H](n2cnc3c(NC4CCCC4)ncnc32)[C@H](O)[C@@H]1O [CPA, N6-cyclopentyladenosine] | – | 181.4±12.9% | 164.2±6.8% | increased | accumulated lipid | – | lipid content of hepatocytes ([2]; CPA 10^-6M, Oil Red O): significantly increased
CCCn1c(=O)c2[nH]c(C3CCCC3)nc2n(CCC)c1=O [DPCPX, 1,3 dipropyl-8-cyclopentylxantine] | partly blocked | 92.0±5.2% | 105.8±5.3% | – | – | significantly lower | blockade of the effect of CPA on lipid content of hepatocytes ([2]; CPA 10^-6M + DPCPX 10^-6M): nearly completely blocked; blockade of the CPA-induced increase of mRNA for ACL [3]: completely blocked; blockade of the CPA-induced increase of mRNA for FAS [4]: completely blocked; ethanol-induced change of mRNA expression of ACCα, CPT1 and PPARα in liver [6]: reduced; ethanol-induced mRNA expression of ACL, FAS, PPARγ and SREBP1 in liver [6]: prevented the ethanol-induced increase in expression; blockade of the effect of CPA on hepatocyte triglyceride accumulation ([1]; CPA 1 mM, DPCPX 1mM): almost completely abrogated
CCNC(=O)[C@H]1O[C@@H](n2cnc3c(N)ncnc32)[C@H](O)[C@@H]1O [NECA, 5′-N-ethylcarboxamidoadenosine] | – | – | – | increased | accumulated lipid | – | –
CCCn1c(=O)[nH]c(=O)c2[nH]cnc21 [enprofylline, 3-propylxanthine] | – | – | – | – | – | significantly lower | serum triglyceride levels [5]: significant reduction
